Test results published in patent US20260355199A1, “COMPOSITIONS AND METHODS FOR TREATING OR PREVENTING NONALCOHOLIC STEATOHEPATITIS (NASH), ANOREXIA, DEPRESSION, ENDOMETRIOSIS, AND OTHER DISEASES OR DISORDERS” (priority 2022, published 2026).
Entries after “also recorded” stand apart in the source; their conditions may differ.

How the values were obtained:
murine model of NASH = assay: High fat high sugar diet-induced murine model of NASH; format: in vivo, mouse; conditions: for fasting glucose / glucose tolerance: week 12; for plasma AST: week 13
Protocol: As TET3-positive macrophages were also detected in human NASH (FIG. 24B), studies were performed to investigate whether depleting these macrophages would reduce NASH progression. Despite the high efficiency (up to 90%) of the LysM-cre strain in manipulating macrophages originated from myeloid progenitors including those in the peritoneal cavity, peripheral blood and bone marrow, only ~40% of tissue resident macrophages derived from yolk sac (e.g., those in the liver and the spleen red pulp) were affected (Shi et al., 2018, Methods Mol Biol, 1784:263-275). While the inefficacy of the LysM-cre strain in depleting tissue resident macrophages has precluded using the Mye-Tet3 ko mice, potential effects of Bobcat339 in steatosis, inflammation, and fibrosis were assessed using a high fat high sugar diet-induced murine model of NASH (Ishimoto et al., 2013, Hepatology, 58:1632-1643; Kroh et al., 2020, Gastroenterol Res Pract, 7347068; Baiges-Gaya et al., 2021, J Nutr Biochem, 89:108559). As shown schematically in FIG. 29A, mice were placed on a standard chow diet (CD) (control group) or a western diet with 10% sucrose in drinking water (WD) for 8 weeks to induce an early NASH phenotype (Kroh et al., 2020, Gastroenterol Res Pract, 7347068). Then, these mice were therapeutically dosed intravenously once a week from week 8 through week 11 with either 2.5 mg/kg Bobcat339 (treatment group) or vehicle (model group) for a total of 13 weeks on diets. Mice were euthanized following a 12 h overnight fasting, and plasma and liver were harvested for analyses.
Then, these mice were therapeutically dosed intravenously once a week from week 8 through week 11 with either 3 mg/kg Bobcat339 (treatment group) or vehicle (model group) for a total of 13 weeks on diets. At the end of the study, mice were euthanized following a 12 h overnight fasting, and plasma and liver were harvested for analyses.
Male C57BL/6J mice of 6-weeks old were randomly divided into three groups, with each containing 5 animals. The control group were fed a standard chow diet (CD). The model group and the treatment group were fed a western diet (WD) (40 kcal % fat, 20 kcal % fructose, and 2 kcal % cholesterol, Research Diets, D09100301) supplemented with 10% sucrose in drinking water provided ad libitum. In the treatment group, Bobcat339 administration was initiated following 8 weeks of WD by tail vein injection at 2.5 mg/kg body weight once a week for 4 weeks. The control group and the model group received vehicle (DMSO) tail vein injections. […] After a total of 13 weeks on diets, mice were sacrificed following a 12 h overnight fasting, and plasma and liver were harvested for analyses.
GTT were performed following 16 h overnight fasting. Each animal received an i.p. injection of 2 g/kg of glucose (Sigma-Aldrich, G5767) in sterile saline. Blood glucose concentrations were measured using Contour next blood glucose meter (Ascensia Diabetes Care) via tail vein bleeding at the indicated time points after injection.
These were assessed using Triglyceride Content Assay Kit (Solarbio, BC0625) and Hydroxyproline Assay Kit (Sigma-Aldrich, MAK008-1KT), respectively.
Mouse liver samples were collected and fixed at 4 °C with 4% of phosphate buffered paraformaldehyde for 24 h. Fixed tissue specimens were embedded in paraffin and cut into […] tissue sections for histopathological analysis. Tissue sections were stained with Hematoxylin-Eosin according to standard protocols. For Sirius Red/Fast Green staining, slides were deparaffinized by heating at 65 °C for 60 min, followed by xylene wash 3 times 5 min each. The slides were then rehydrated in 100%, 90%, 80% and 70% ethanol for 5 min each, followed by ddH2O wash 2 times 5 min each. Then they were incubated in 0.04% Fast Green (Sigma-Aldrich, F7258) in saturated [COMPOUND LEFT OUT] for 15 min, washed with distilled water and then incubated in 0.1% Fast Green and 0.08% Sirius Red (Sigma-Aldrich, 365546) in saturated [COMPOUND LEFT OUT] for 30 min. […]

[1] = Liver toxicity (plasma ALT, AST, bilirubin) in endometriosis mice; format: in vivo, mouse; conditions: 6 weeks; for liver toxicity (plasma ALT, AST, bilirubin): 2.5 mg/kg i.p. once a week
Protocol: Blood samples were collected in EDTA tubes (Microtainer with K2EDTA, BD, 365974) by cardiac puncture of terminally anesthetized animals. The tubes were centrifuged at 2,000×g at 4 °C for 20 min, and plasma was collected and stored at −80 °C until use. Blood chemistry were measured according to the manufacturer's instructions. Kits used to measure alanine transaminase (EALT-100) and aspartate transaminase (EASTR-100) were purchased from Bioassay Systems. The bilirubin assay kit (MAK126) was purchased from Sigma Aldrich.

TET3 = TET3 protein stability (cycloheximide) in RAW 264.7 cells; format: cell-based, mouse; conditions: 10 μM, with cycloheximide
Protocol: For TET3 protein stability assay, cells in 24-well plates were incubated with vehicle or Bobcat339 at a final concentration of 10 μM for 3 hours, followed by addition of cycloheximide (CHX, Cell Signaling, 2112) at a final concentration of 50 μg/mL in the presence of 10 μM of Bobcat339. Proteins were harvested at 0, 1, 2, and 3 hours after addition of CHX.

Nc1nc(=O)n(-c2cccc(-c3ccccc3)c2)cc1Cl [Bobcat339, 4-Amino-1-[1,1′-biphenyl]-3-yl-5-chloro-2(1H)-pyrimidinone]
NAS score (murine model of NASH; 2.5 mg/kg i.v. once a week): reduced NAS scores
TET3-expressing macrophages in liver (murine model of NASH; 2.5 mg/kg i.v. once a week): depleted after Bobcat339 treatment
fibrosis stage (murine model of NASH; 2.5 mg/kg i.v. once a week): a significant reduction in both the fibrosis stage and the hydroxyproline content
histological severity of steatosis and fibrosis (murine model of NASH; 2.5 mg/kg i.v. once a week): significantly reduced the severity of both steatosis and fibrosis
liver hydroxyproline content (murine model of NASH; 2.5 mg/kg i.v. once a week): a significant reduction in both the fibrosis stage and the hydroxyproline content
liver triglycerides (murine model of NASH; 2.5 mg/kg i.v. once a week): normalized liver triglycerides
liver-to-body weight ratio (murine model of NASH; 2.5 mg/kg i.v. once a week): decreased liver-to-body weight ratio
fasting glucose (murine model of NASH; 2.5 mg/kg i.v. once a week): a significant improvement
glucose tolerance (murine model of NASH; 2.5 mg/kg i.v. once a week): a significant improvement
plasma AST (murine model of NASH; 2.5 mg/kg i.v. once a week): normalized this marker
IL-1b and IL-6 in CD163+ macrophage-enriched areas of liver (murine model of NASH; 3 mg/kg i.v. once a week): reduced the expression of IL-1b and IL-6
NAS score (murine model of NASH; 3 mg/kg i.v. once a week): reduced NAS scores
TET3-overexpressing CD163+ macrophages in liver (murine model of NASH; 3 mg/kg i.v. once a week): significantly reduced after Bobcat339 treatment
fibrosis stage (murine model of NASH; 3 mg/kg i.v. once a week): a significant reduction in both the fibrosis stage and hydroxyproline content
histological severity of steatosis and fibrosis (murine model of NASH; 3 mg/kg i.v. once a week): significantly reduced the severity of both steatosis and fibrosis
hydroxyproline content (murine model of NASH; 3 mg/kg i.v. once a week): a significant reduction in both the fibrosis stage and hydroxyproline content
liver triglycerides (murine model of NASH; 3 mg/kg i.v. once a week): normalized liver triglycerides
liver-to-body weight ratio (murine model of NASH; 3 mg/kg i.v. once a week): decreased liver-to-body weight ratio
fasting glucose (murine model of NASH; 3 mg/kg i.v. once a week): a significant improvement
glucose tolerance (murine model of NASH; 3 mg/kg i.v. once a week): a significant improvement
plasma AST (murine model of NASH; 3 mg/kg i.v. once a week): normalized this marker
liver toxicity (plasma ALT, AST, bilirubin) [1]: no evidence of liver toxicity; also recorded: no differences between the groups
liver toxicity (plasma ALT, AST, bilirubin) ([1]; listed as Bobcat): no differences between the groups
liver toxicity ([1]; 3 mg/kg i.p. once a week): no evidence of liver toxicity
TET3 protein stability (TET3): less stable
half-life of TET3 (TET3; RAW): ~ 80 minutes
half-life of TET3 (TET3; macrophages): ~ 80 min
